Measured values published in ChEMBL document CHEMBL1201862, “PubChem BioAssay data set” (2004).
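The compound was tested at five concentrations on cells cultured in 96-well plates, with a 48-hour exposure period. GI50 = concentration required for 50% inhibition of growth.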 The source made the active and inactive calls. Cut-off read from the data, not from the text of the source: active = GI50 up to about 1.1 µM and inactive = higher.

Experiments:
Assay in all cases: NCI-60 cell line screen, 48 h
SK-MEL-5 = test system: SK-MEL-5
UACC-257 = test system: UACC-257
OVCAR-5 = test system: OVCAR-5
A498 = test system: A498
M14 = test system: M14
SK-MEL-2 = test system: SK-MEL-2
MCF7 = test system: MCF7
COLO 205 = test system: COLO 205
NCI-H23 = test system: NCI-H23
HL-60 = test system: HL-60
HT-29 = test system: HT-29
HOP-62 = test system: HOP-62
HCT-15 = test system: HCT-15
BT-549 = test system: BT-549
RPMI-8226 = test system: RPMI-8226
OVCAR-8 = test system: OVCAR-8
PC-3 = test system: PC-3
MDA-MB-435 = test system: MDA-MB-435
MDA-N = test system: MDA-N
OVCAR-4 = test system: OVCAR-4
SN12C = test system: SN12C
IGROV-1 = test system: IGROV-1
TK-10 = test system: TK-10
CAKI-1 = test system: CAKI-1
SF-268 = test system: SF-268
MDA-MB-231 = test system: MDA-MB-231
CCRF-CEM = test system: CCRF-CEM
UACC-62 = test system: UACC-62
NCI-H460 = test system: NCI-H460
HCC 2998 = test system: HCC 2998
ACHN = test system: ACHN
HOP-92 = test system: HOP-92
RXF 393 = test system: RXF 393
SK-MEL-28 = test system: SK-MEL-28
SNB-75 = test system: SNB-75
SNB-19 = test system: SNB-19
KM12 = test system: KM12
OVCAR-3 = test system: OVCAR-3
DU-145 = test system: DU-145
UO-31 = test system: UO-31
Malme-3M = test system: Malme-3M
NCI-H226 = test system: NCI-H226
EKVX = test system: EKVX
SW-620 = test system: SW-620
A549 = test system: A549
NCI/ADR-RES = test system: NCI/ADR-RES
LOX IMVI = test system: LOX IMVI
SF-295 = test system: SF-295
Hs-578T = test system: Hs-578T
T47D = test system: T47D
NCI-H522 = test system: NCI-H522
U-251 = test system: U-251
SK-OV-3 = test system: SK-OV-3
786-0 = test system: 786-0
HCT-116 = test system: HCT-116
SR = test system: SR
K562 = test system: K562
MOLT-4 = test system: MOLT-4
SF-539 = test system: SF-539

CCC(=O)C(c1ccccc1)c1ccccn1 (stereo not drawn)
GI50 (SK-MEL-5): > 100 µM (inactive)
GI50 (UACC-257): > 100 µM (inactive)
GI50 (OVCAR-5): > 100 µM (inactive)
GI50 (A498): > 100 µM (inactive)
GI50 (M14): > 100 µM (inactive)
GI50 (SK-MEL-2): > 100 µM (inactive)
GI50 (MCF7): > 100 µM (inactive)
GI50 (COLO 205): > 100 µM (inactive)
GI50 (NCI-H23): > 100 µM (inactive)
GI50 (HL-60): > 100 µM (inactive)
GI50 (HT-29): > 100 µM (inactive)
GI50 (HOP-62): > 100 µM (inactive)
GI50 (HCT-15): > 100 µM
GI50 (BT-549): > 100 µM (inactive)
GI50 (RPMI-8226): > 100 µM (inactive)
GI50 (OVCAR-8): > 100 µM (inactive)
GI50 (PC-3): > 100 µM (inactive)
GI50 (MDA-MB-435): > 100 µM (inactive)
GI50 (MDA-N): > 100 µM (inactive)
GI50 (OVCAR-4): > 100 µM (inactive)
GI50 (SN12C): > 100 µM (inactive)
GI50 (IGROV-1): > 100 µM (inactive)
GI50 (TK-10): > 100 µM (inactive)
GI50 (CAKI-1): > 100 µM (inactive)
GI50 (SF-268): > 100 µM (inactive)
GI50 (MDA-MB-231): > 100 µM (inactive)
GI50 (CCRF-CEM): > 100 µM (inactive)
GI50 (UACC-62): > 100 µM (inactive)
GI50 (NCI-H460): > 100 µM (inactive)
GI50 (HCC 2998): > 100 µM (inactive)
GI50 (ACHN): > 100 µM (inactive)
GI50 (HOP-92): > 100 µM (inactive)
GI50 (RXF 393): > 100 µM (inactive)
GI50 (SK-MEL-28): > 100 µM (inactive)
GI50 (SNB-75): > 100 µM (inactive)
GI50 (SNB-19): > 100 µM (inactive)
GI50 (KM12): > 100 µM (inactive)
GI50 (OVCAR-3): 13.8 µM (inactive)
GI50 (DU-145): > 100 µM (inactive)
GI50 (UO-31): > 100 µM (inactive)
GI50 (Malme-3M): > 100 µM (inactive)
GI50 (NCI-H226): > 100 µM (inactive)
GI50 (EKVX): > 100 µM (inactive)
GI50 (SW-620): > 100 µM (inactive)
GI50 (A549): > 100 µM (inactive)
GI50 (NCI/ADR-RES): > 100 µM (inactive)
GI50 (LOX IMVI): > 100 µM (inactive)
GI50 (SF-295): > 100 µM (inactive)
GI50 (Hs-578T): > 100 µM (inactive)
GI50 (T47D): > 100 µM (inactive)
GI50 (NCI-H522): > 100 µM (inactive)
GI50 (U-251): > 100 µM (inactive)
GI50 (SK-OV-3): > 100 µM (inactive)
GI50 (786-0): > 100 µM (inactive)
GI50 (HCT-116): > 100 µM (inactive)

COc1ccccc1NC(=O)C(=O)Cc1cnc2ccccc2n1
GI50 (SR): > 100 µM (inactive)
GI50 (SK-MEL-5): > 100 µM (inactive)
GI50 (UACC-257): > 100 µM (inactive)
GI50 (OVCAR-5): > 100 µM (inactive)
GI50 (A498): > 100 µM (inactive)
GI50 (M14): > 100 µM (inactive)
GI50 (SK-MEL-2): > 100 µM (inactive)
GI50 (MCF7): > 100 µM (inactive)
GI50 (COLO 205): > 100 µM (inactive)
GI50 (NCI-H23): > 100 µM (inactive)
GI50 (K562): > 100 µM (inactive)
GI50 (HL-60): > 100 µM (inactive)
GI50 (HT-29): > 100 µM (inactive)
GI50 (HCT-15): > 100 µM
GI50 (BT-549): > 100 µM (inactive)
GI50 (RPMI-8226): > 100 µM (inactive)
GI50 (OVCAR-8): > 100 µM (inactive)
GI50 (PC-3): > 100 µM (inactive)
GI50 (MDA-MB-435): > 100 µM (inactive)
GI50 (MDA-N): > 100 µM (inactive)
GI50 (OVCAR-4): > 100 µM (inactive)
GI50 (SN12C): > 100 µM (inactive)
GI50 (CAKI-1): > 100 µM (inactive)
GI50 (SF-268): > 100 µM (inactive)
GI50 (MDA-MB-231): > 100 µM (inactive)
GI50 (CCRF-CEM): > 100 µM (inactive)
GI50 (UACC-62): > 100 µM (inactive)
GI50 (NCI-H460): > 100 µM (inactive)
GI50 (HCC 2998): > 100 µM (inactive)
GI50 (ACHN): > 100 µM (inactive)
GI50 (HOP-92): > 100 µM (inactive)
GI50 (RXF 393): > 100 µM (inactive)
GI50 (SK-MEL-28): > 100 µM (inactive)
GI50 (SNB-75): 41 µM (inactive)
GI50 (SNB-19): > 100 µM (inactive)
GI50 (MOLT-4): > 100 µM (inactive)
GI50 (KM12): > 100 µM (inactive)
GI50 (OVCAR-3): > 100 µM (inactive)
GI50 (DU-145): > 100 µM (inactive)
GI50 (UO-31): > 100 µM (inactive)
GI50 (NCI-H226): > 100 µM (inactive)
GI50 (SF-539): > 100 µM (inactive)
GI50 (SW-620): > 100 µM (inactive)
GI50 (A549): > 100 µM (inactive)
GI50 (NCI/ADR-RES): > 100 µM (inactive)
GI50 (LOX IMVI): > 100 µM (inactive)
GI50 (SF-295): > 100 µM (inactive)
GI50 (Hs-578T): > 100 µM (inactive)
GI50 (T47D): > 100 µM (inactive)
GI50 (U-251): > 100 µM (inactive)
GI50 (SK-OV-3): > 100 µM (inactive)
GI50 (786-0): > 100 µM (inactive)
GI50 (HCT-116): > 100 µM (inactive)
